Measured values from patent US12338203B2 (TAISHO PHARMACEUTICAL CO., LTD., priority 2019, dated 2025).

Target: T1, human LPAR1 (Homo sapiens, UniProt Q92633)
T1 construct: expressed in transfected cells
Assay: Test Example 1: antagonism against response of LPA-induced increase in intracellular Ca2+ concentration in RH7777 cells stably expressing human LPAR1
Assay type: cell-based
Details: RH7777 cells stably expressing human LPAR1; Fluo-4 fluorescence, FDSS6000; read-out: IC50 value (concentration producing 50% antagonism against response of LPA-induced increase in intracellular Ca2+ concentration) (converted)
Method in brief: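 Ca2+ flux read at 540 nm emission (480 nm excitation) after LPA addition to human LPAR1-expressing RH7777 cells exposed to compound for 30 min, 37 °C, pH 7.4 HEPES-buffered HBSS. Response relative to no-compound control after basal subtraction; IC50 fitted from concentration–response.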

T1 sequence (Q92633 whole entry): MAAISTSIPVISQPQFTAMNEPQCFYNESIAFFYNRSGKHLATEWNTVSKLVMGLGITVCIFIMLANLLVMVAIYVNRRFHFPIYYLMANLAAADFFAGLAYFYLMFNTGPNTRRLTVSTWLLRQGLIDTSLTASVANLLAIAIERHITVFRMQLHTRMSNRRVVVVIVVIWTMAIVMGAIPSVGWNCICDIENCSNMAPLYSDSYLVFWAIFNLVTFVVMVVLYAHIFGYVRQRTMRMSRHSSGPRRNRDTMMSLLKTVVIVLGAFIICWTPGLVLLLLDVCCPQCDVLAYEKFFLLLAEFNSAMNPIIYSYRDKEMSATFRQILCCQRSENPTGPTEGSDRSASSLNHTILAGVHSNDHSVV

SMILES | IC50 [nM]
CCOc1cc([C@@H](C)N(CCC2Cc3ccccc3C2)C(=O)NC2(C(=O)O)CC(OC)C2)c(C)c(OCC)c1C(C)=O (stereo partly drawn) [Example 4-24] | 5.57
COc1cc(C(C)N(CCCn2cc(C)cn2)C(=O)NC2(C(=O)O)CC(F)(F)C2)cc(OC)c1C (stereo not drawn) [Example 4-26] | 1830
CCOc1cc([C@@H](C)N(CCCc2ccccn2)C(=O)NC2(C(=O)O)CC(F)(F)C2)cc(OCC)c1C [Example 4-27] | 220
CCOc1cc([C@@H](C)N(CCCCc2cccnc2)C(=O)NC2(C(=O)O)CC(F)(F)C2)cc(OCC)c1C [Example 4-29] | 17.6
CCOc1cc([C@@H](C)N(CCCc2ccncc2)C(=O)NC2(C(=O)O)CC(F)(F)C2)cc(COC)c1C [Example 4-30] | 178
CCOc1cc([C@@H](C)N(CCN2Cc3ccccc3C2)C(=O)NC2(C(=O)O)CC(F)(F)C2)cc(OCC)c1C [Example 4-31] | 28.4
CCOc1cc([C@@H](C)N(Cc2cc3ccccc3[nH]2)C(=O)NC2(C(=O)O)CC(F)(F)C2)cc(OCC)c1C [Example 4-32] | 733
CCOc1cc([C@@H](C)N(CCCCC2CCNCC2)C(=O)NC2(C(=O)O)CC(F)(F)C2)cc(OCC)c1C [Example 4-34, 1-({[(1R)-1-(3,5-Diethoxy-4-Methylphenyl)Ethyl][4-(Piperidin-4-Yl)Butyl]Carbamoyl}Amino)-3,3-Difluorocyclobutane-1-Carboxylic Acid] | 7630
CCOc1cc([C@@H](C)N(CCCc2ccccc2)C(=O)NC2(C(=O)O)CC(F)(F)C2)cc(OCC)c1C(C)=O [Example 4-35, 1-({[(1R)-1-(4-Acetyl-3,5-Diethoxyphenyl)Ethyl](3-Phenylpropyl) Carbamoyl}Amino)-3,3-Difluorocyclobutane-1-Carboxylic Acid] | 2.26
CCOc1cc([C@@H](C)N(CCCc2ccccc2)C(=O)NC2(C(=O)O)CC(F)(F)C2)cc(OCC)c1C [Example 4-36] | 5.7
CCOc1cc(C(C)N(CCCCCc2ccccc2)C(=O)NC2(C(=O)O)CC(F)(F)C2)cc(OCC)c1C (stereo not drawn) [Example 4-37] | 30.6
CCOc1cc([C@@H](C)N(CC(C)CCc2ccccc2)C(=O)NC2(C(=O)O)CC(F)(F)C2)cc(OCC)c1C (stereo partly drawn) [Example 4-38] | 10.5
CCOc1cc([C@@H](C)N(CC(C)CCc2ccccc2)C(=O)NC2(C(=O)O)Cc3ccccc3C2)cc(OCC)c1C (stereo partly drawn) [Example 4-39] | 46.4
CCOc1cc([C@@H](C)N(CCCC(C)c2ccccc2)C(=O)NC2(C(=O)O)CC(F)(F)C2)cc(OCC)c1C (stereo partly drawn) [Example 4-40, 1-({[(1R)-1-(3,5-Diethoxy-4-Methylphenyl)Ethyl](4-Phenylpentyl) Carbamoyl}Amino)-3,3-Difluorocyclobutane-1-Carboxylic Acid] | 3.15
CCOc1cc([C@@H](C)N(CC/C=C(\C)c2ccccc2)C(=O)NC2(C(=O)O)CC(F)(F)C2)cc(OCC)c1C [Example 4-41] | 4.16
CCOc1cc([C@@H](C)N(CC2CC(c3ccccc3)C2)C(=O)NC2(C(=O)O)CC(F)(F)C2)cc(OCC)c1C (stereo partly drawn) [Example 4-42] | 25.2
CCOc1cc([C@@H](C)N(C(=O)NC2(C(=O)O)CC(F)(F)C2)C2CC(Cc3ccccc3)C2)cc(OCC)c1C (stereo partly drawn) [Example 4-43] | 37.2
CCOc1cc([C@@H](C)N(CCCC(F)(F)c2ccccc2)C(=O)N[C@]2(C(=O)O)C[C@@H](OCC)C2)cc(OCC)c1C(C)=O [Example 4-44, Trans-1-({[(1R)-1-(4-Acetyl-3,5-Diethoxyphenyl)Ethyl](4,4-Difluoro-4-Phenylbutyl) Carbamoyl}Amino)-3-Ethoxycyclobutane-1-Carboxylic Acid] | 3.34
CCOc1cc([C@@H](C)N(CCCC(F)(F)c2ccccc2)C(=O)NC2(C(=O)O)CC2)cc(OCC)c1C(C)=O [Example 4-45] | 1.59

SMILES | IC50 [nM]
CCOc1cc([C@@H](C)N(CCCC(F)(F)c2ccccc2)C(=O)NC2(C(=O)O)CC2)cc(OCC)c1C1CC1 [Example 4-46] | 1.21
CCOc1cc([C@@H](C)N(CCCC(F)(F)c2ccccc2)C(=O)NC2(C(=O)O)CC2)cc(OCC)c1C(C)O (stereo partly drawn) [Example 4-47] | 10.5
CCOc1cc(C(C)N(CCCC(F)(F)c2ccccc2)C(=O)NC2(C(=O)O)CC2)cc(OCC)c1C(C)O (stereo not drawn) [Example 4-48] | 2.55
CCOc1c(C(C)=O)ccc([C@@H](C)N(CCCC(F)(F)c2ccccc2)C(=O)NC2(C(=O)O)CC2)c1C [Example 4-49] | 4.94
CCOc1cc([C@@H](C)N(CCCC(F)(F)c2ccccc2)C(=O)NC2(C(=O)O)CCC2)cc(OCC)c1C(C)=O [Example 4-50] | 1.21
CCOc1cc([C@@H](C)N(CCCC(F)(F)c2ccccc2)C(=O)NC2(C(=O)O)CCC2)cc(OCC)c1C1CC1 [Example 4-51] | 1.11
CCOc1cc([C@@H](C)N(CCCC(F)(F)c2ccccc2)C(=O)NC2(C(=O)O)CCC2)cc(OCC)c1C(C)O (stereo partly drawn) [Example 4-52] | 2.68
CCOc1cc([C@@H](C)N(CCCC(F)(F)c2ccccc2)C(=O)NC2(C(=O)O)CCC2)cc(OCC)c1C(C)O (stereo partly drawn) [Example 4-53] | 1.72
CCOc1c(C(C)=O)ccc([C@@H](C)N(CCCC(F)(F)c2ccccc2)C(=O)NC2(C(=O)O)CCC2)c1C [Example 4-54] | 3.75
CCOc1cc([C@@H](C)N(CCCC(F)(F)c2ccccc2)C(=O)NC2(C(=O)O)CC(F)(F)C2)cc(OCC)c1C(C)=O [Example 4-56] | 1.33
CCOc1cc([C@@H](C)N(CCCC(F)(F)c2ccccc2)C(=O)NC2(C(=O)O)CC(F)(F)C2)cc(OCC)c1C1(O)CC1 [Example 4-57] | 4.47
CCOc1cc([C@@H](C)N(CCCC(F)(F)c2ccccc2)C(=O)NC2(C(=O)O)CC(F)(F)C2)cc(OCC)c1C [Example 4-58] | 1.15
CCOc1cc([C@@H](C)N(CCCC(F)(F)c2ccccc2)C(=O)NC2(C(=O)O)CC(F)(F)C2)cc(OCC)c1C1CC1 [Example 4-59] | 1.62
CCOc1c(C(C)=O)ccc([C@@H](C)N(CCCC(F)(F)c2ccccc2)C(=O)NC2(C(=O)O)CC(F)(F)C2)c1C [Example 4-60] | 2.9
CCOc1c(C(C)=O)ccc([C@@H](C)N(CCCC(F)(F)c2ccccc2)C(=O)N[C@]2(C(=O)O)C[C@@H](OC)C2)c1C [Example 4-63] | 3.94
CCOc1cc([C@@H](C)N(CCCC(F)(F)c2ccccc2)C(=O)N[C@]2(C(=O)O)C[C@@H](OC)C2)cc(OCC)c1C(C)=O [Example 4-64] | 2.69
CCOc1cc([C@@H](C)N(CCCC(F)(F)c2ccccc2)C(=O)N[C@]2(C(=O)O)C[C@@H](OC)C2)cc(OCC)c1C(C)=O [Example 4-65] | 5.3
CCOc1cc([C@@H](C)N(CCCC(F)(F)c2ccccc2)C(=O)NC2(C(=O)O)CC(OC)C2)cc(OCC)c1C1CC1 (stereo partly drawn) [Example 4-67] | 1.27
CCOc1c(C(C)=O)ccc([C@@H](C)N(CCCC(F)(F)c2ccccc2)C(=O)N[C@]2(C(=O)O)C[C@H](OC)C2)c1C [Example 4-68] | 8.85

SMILES | IC50 [nM]
CCOc1cc([C@@H](C)N(CCCC(F)(F)c2ccccc2)C(=O)N[C@]2(C(=O)O)C[C@@H](OCC)C2)cc(OCC)c1C(C)=O [Example 4-69] | 4.9
CCOc1c(C(C)=O)ccc([C@@H](C)N(CCCC(F)(F)c2ccccc2)C(=O)NC2(C(C)=O)CC(OCC)C2)c1C (stereo partly drawn) [Example 4-71] | 8.06
CCOc1c(C(C)=O)ccc([C@@H](C)N(CCCC(F)(F)c2ccccc2)C(=O)NC2(C(=O)O)CC(OCC)C2)c1C (stereo partly drawn) [Example 4-72] | 3.34
CCOc1cc([C@@H](C)N(CCCC(F)(F)c2ccccc2)C(=O)NC2(C(=O)O)CCOCC2)cc(OCC)c1C(C)=O [Example 4-73] | 3.68
CCOc1cc([C@@H](C)N(CCCC(F)(F)c2ccccc2)C(=O)NC2(C(=O)O)CCOCC2)cc(OCC)c1C1(O)CC1 [Example 4-74] | 50.5
CCOc1cc([C@@H](C)N(CCCC(F)(F)c2ccccc2)C(=O)NC2(C(=O)O)CCOCC2)cc(OCC)c1C1CC1 [Example 4-75] | 0.992
CCOc1cc([C@@H](C)N(CCCC(F)(F)c2ccccc2)C(=O)NC2(C(=O)O)CCOCC2)cc(OCC)c1C(C)O (stereo partly drawn) [Example 4-76] | 10.7
CCOc1cc([C@@H](C)N(CCCC(F)(F)c2ccccc2)C(=O)NC2(C(=O)O)CCOCC2)cc(OCC)c1C(C)O (stereo partly drawn) [Example 4-77] | 5.87
CCOc1c(C(C)=O)ccc([C@@H](C)N(CCCC(F)(F)c2ccccc2)C(=O)NC2(C(=O)O)CCOCC2)c1C [Example 4-78] | 8.44
CCOc1cc([C@@H](C)N(CCC(F)(F)Cc2ccccc2)C(=O)NC2(C(=O)O)CC2)cc(OCC)c1C(C)=O [Example 4-79] | 34.6
CCOc1cc([C@@H](C)N(CCC(F)(F)Cc2ccccc2)C(=O)NC2(C(=O)O)CC2)cc(OCC)c1C1CC1 [Example 4-80] | 23.6
CCOc1cc([C@@H](C)N(CCC(F)(F)Cc2ccccc2)C(=O)NC2(C(=O)O)CCC2)cc(OCC)c1C(C)=O [Example 4-81] | 7.89
CCOc1cc([C@@H](C)N(CCC(F)(F)Cc2ccccc2)C(=O)NC2(C(=O)O)CCC2)cc(OCC)c1C1CC1 [Example 4-82] | 4.1
CCOc1cc([C@@H](C)N(CCC(F)(F)Cc2ccccc2)C(=O)NC2CC(C(=O)O)C2)cc(OCC)c1C1CC1 (stereo partly drawn) [Example 4-83] | 80.8
CCOc1cc([C@@H](C)N(CCC(F)(F)Cc2ccccc2)C(=O)NC2(C(=O)O)CC(F)(F)C2)cc(OCC)c1C(C)=O [Example 4-84] | 2.88
CCOc1cc([C@@H](C)N(CCC(F)(F)Cc2ccccc2)C(=O)NC2(C(=O)O)CC(F)(F)C2)cc(OCC)c1C1CC1 [Example 4-87] | 2.53
CCOc1c(C(C)=O)ccc([C@@H](C)N(CCC(F)(F)Cc2ccccc2)C(=O)NC2(C(=O)O)CC(F)(F)C2)c1C [Example 4-88] | 15.4
CCOc1cc([C@@H](C)N(CCC(F)(F)Cc2ccccc2)C(=O)N[C@]2(C(=O)O)C[C@@H](OC)C2)cc(OCC)c1C(C)=O [Example 4-89] | 7.59
CCOc1cc([C@@H](C)N(CCC(F)(F)Cc2ccccc2)C(=O)NC2(C(=O)O)CC(OC)C2)cc(OCC)c1C(C)=O (stereo partly drawn) [Example 4-90] | 10.1
